Results from US20230295159A1, “ATX INHIBITOR, AND PREPARATION METHOD THEREFOR AND USE THEREOF” (SUZHOU ARK BIOPHARMACEUTICAL CO., LTD., priority 2020, published 2023).
Read-outs that look alike come from different tables or passages of the source.

Assays:
ATX enzyme = ATX enzyme (Homo sapiens (Human), UniProt Q13822); assay: ATX enzyme activity inhibition assay; assay type: biochemical; details: 16:0-LPC substrate, Amplex UltraRed fluorescence
Experimental: The tested compounds were dissolved with dimethyl sulfoxide (DMSO) to prepare 20 mM of stock solutions, the stock solutions were subjected to 4-fold gradient dilutions with DMSO, with the initial concentration of 20 µM and a total of 8 concentration gradients. 20 nL of diluted compound was transferred to a 384-well plate using Echo 550 and 5 µL of ATX enzyme solution formulated with 4 × Tris-HCl reaction buffer to the well, then the 384-well plate was centrifuged at 1000 rpm for 1 min and […] pre-incubated at room temperature for 15 min. Subsequently, 5 µL of 16:0-LPC foumulated with the above 4 × reaction buffer and 10 µL of assay solution containng 2 × Amplex UltraRed reagent, choline oxidase and horseradish peroxidase (HRP) foumulated with the same reaction buffer were added to each well, then the 384-well plate was centrifugated at 1000 rpm for 1 min. The fluorescence signals were read at an excitation wavelength of 530 nm and an emission wavelength of 590 nm by Synergy 2 microplate reader. The inhibition rate of the compound against enzyme reaction was calculated according to the fluorescence intensity ratio, and IC50 of the compound was analysed and calculated by GraphPad Prism 5 software.

[1] = Rat pharmacokinetic study; assay type: in vivo, SD rat; details: for F: PO 10 mg/kg vs IV 2 mg/kg; for AUC(0-inf) / AUC(0-t) / Cmax / half-life / Tmax: SD, plasma; for half-life: read-out: t½ (converted)
Experimental: SD rat pharmacokinetic study was performed on several compounds in Examples of the present disclosure through a single intravenous injection (IV, at a dose of 2 mg/kg) and a single oral administration (PO, at a dose of 10 mg/kg), and blood samples were taken before administration and 5 min, 15 min, 30 min, 1 h, 2 h, 4 h, 8 h, 12 h and 24 h after administration, respectively, to determine the plasma concentration of the compound for assay. The pharmacokinetic data of control compound and the compounds in Examples 17, 26, 28 and 29 of the present disclosure in rat plasma are shown in Tables 4-8.

hERG potassium channel = hERG potassium channel (Homo sapiens (Human), UniProt Q12809); assay: hERG inhibition assay (manual whole-cell patch clamp); assay type: cell-based; details: hERG tail current, stable transfected cell line
Chain of hERG potassium channel (Q12809 whole entry): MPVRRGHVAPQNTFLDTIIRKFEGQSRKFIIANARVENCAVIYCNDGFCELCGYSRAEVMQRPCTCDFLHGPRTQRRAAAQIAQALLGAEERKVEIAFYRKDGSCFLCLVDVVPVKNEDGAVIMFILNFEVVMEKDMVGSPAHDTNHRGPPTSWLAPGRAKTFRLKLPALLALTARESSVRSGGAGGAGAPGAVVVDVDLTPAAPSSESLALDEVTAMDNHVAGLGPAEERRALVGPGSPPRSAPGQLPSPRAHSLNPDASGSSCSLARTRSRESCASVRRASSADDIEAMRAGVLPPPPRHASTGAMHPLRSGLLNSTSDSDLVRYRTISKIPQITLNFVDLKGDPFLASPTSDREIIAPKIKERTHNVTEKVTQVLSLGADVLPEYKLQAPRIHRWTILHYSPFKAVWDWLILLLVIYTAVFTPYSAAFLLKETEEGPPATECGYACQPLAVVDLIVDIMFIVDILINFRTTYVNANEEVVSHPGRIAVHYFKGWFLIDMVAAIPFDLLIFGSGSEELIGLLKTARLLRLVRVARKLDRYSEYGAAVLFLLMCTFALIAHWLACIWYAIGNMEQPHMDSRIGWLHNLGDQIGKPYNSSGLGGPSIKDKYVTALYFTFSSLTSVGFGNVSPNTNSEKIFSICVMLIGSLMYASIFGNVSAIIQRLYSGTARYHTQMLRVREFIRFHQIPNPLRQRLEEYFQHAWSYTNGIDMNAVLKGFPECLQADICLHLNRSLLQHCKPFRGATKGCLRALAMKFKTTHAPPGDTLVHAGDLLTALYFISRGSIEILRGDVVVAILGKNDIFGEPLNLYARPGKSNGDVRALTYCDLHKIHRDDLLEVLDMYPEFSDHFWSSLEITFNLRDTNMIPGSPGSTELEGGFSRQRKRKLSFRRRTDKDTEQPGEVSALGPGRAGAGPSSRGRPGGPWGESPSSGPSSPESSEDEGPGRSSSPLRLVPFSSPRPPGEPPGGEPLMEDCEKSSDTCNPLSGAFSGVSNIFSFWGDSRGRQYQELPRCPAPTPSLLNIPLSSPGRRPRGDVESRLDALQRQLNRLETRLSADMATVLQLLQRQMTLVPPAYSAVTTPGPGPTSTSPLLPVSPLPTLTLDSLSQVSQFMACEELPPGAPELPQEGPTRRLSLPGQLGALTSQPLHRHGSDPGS
Experimental: Rapid activation of human delayed rectifier potassium current (IKr) is mainly mediated by hERG ion channel and participates in repolarization of human cardiomyocytes. Blocking this current with drugs will lead to QT interval prolongation syndrome in clinical practice, which will easily induce acute arrhythmia and even sudden death.
Experimental method: a whole-cell patch clamp technique was used to record hERG current. The cell suspension was added to a small petri dish and placed on an inverted microscope stage. After adherence, the cells were perfused with extracellular fluid at a recommended flow rate of 1-2 mL/min. The glass microelectrode was drawn by a microelectrode drawing instrument in two steps, and the resistance thereof after filling the electrode interior liquid was 2-5 MΩ. After the whole-cell recording mode was set up, the clamping potential was maintained at -80 mV. The depolarization voltage was applied to +60 mV for 850 ms, and then repolarized to -50 mV for 1275 ms to induce hERG tail current. Such a set of pulse programming was repeated every 15 seconds throughout the experiment. After the current was stable, the drug was administered by extracellular continuous perfusion from low concentration to high concentration. Starting from low concentration, perfusion continued until the drug effect was stable, then perfusion at the next concentration was performed. In this experiment, the blocking effect on hERG tail current was tested for the test objects at different concentrations and the positive control (N ≥ 2). Then, stimulus generation and signal acquisition were carried out by PatchMaster software; and a signal was amplified with a patch clamp amplifier. FitMaster, EXCEL, Graphpad Prism, SPSS 21.0, etc. were used for further data analysis and curve fitting. In data processing, when determining the blocking effect on hERG, the peak and baseline of tail current were calibrated. The inhibition rate (IR) of tail current was used to express the effect of the compounds at different concentrations.
IR = 100% × (peak of tail current before administration - peak of tail current after administration)/peak of tail current before administration.
IC50 was obtained by fitting the Hill equation (if applicable), if the maximum inhibition rate of the test object at all concentrations was less than 50%, then IC50 was not calculated. [00500]

[2] = target: 3A4 subtype of CYP450 enzyme (Homo sapiens (Human), UniProt P08684); assay: 3A4 subtype of CYP450 enzyme time-dependent inhibition assay (IC50 shift); assay type: in vitro ADME; details: both IC50 values above top concentration; testosterone substrate; read-out: IC50 against 3A4 subtype (both groups, pre-incubated with and without NADPH)
Chain of 3A4 subtype of CYP450 enzyme (P08684 whole entry): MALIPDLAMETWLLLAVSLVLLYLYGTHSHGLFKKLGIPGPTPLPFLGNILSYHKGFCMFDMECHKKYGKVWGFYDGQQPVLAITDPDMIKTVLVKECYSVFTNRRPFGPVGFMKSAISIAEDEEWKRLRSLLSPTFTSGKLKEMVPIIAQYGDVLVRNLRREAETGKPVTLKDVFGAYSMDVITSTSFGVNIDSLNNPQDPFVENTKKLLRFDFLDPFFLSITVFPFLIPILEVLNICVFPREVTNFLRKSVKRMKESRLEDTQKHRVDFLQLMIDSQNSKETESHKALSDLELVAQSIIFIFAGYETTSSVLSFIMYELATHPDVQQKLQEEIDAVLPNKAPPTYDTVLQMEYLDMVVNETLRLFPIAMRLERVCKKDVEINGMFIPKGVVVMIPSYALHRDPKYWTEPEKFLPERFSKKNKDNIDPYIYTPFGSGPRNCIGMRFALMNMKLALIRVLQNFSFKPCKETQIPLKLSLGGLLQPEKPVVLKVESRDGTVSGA
Experimental: (§1) The probe substrate was testosterone at a concentration of 50 µM. The reaction was terminated after incubation for 10 min. The IC50 of the compound against enzyme was calculated by measuring the relative yield of metabolite, and the IC50 shift was calculated from the IC50 results of the groups pre-incubated with and without addition of NADPH.

CYP3A4 = CYP3A4 (Homo sapiens (Human), UniProt P08684); assay: as above; assay type: in vitro ADME; details: probe testosterone, 50 µM; 30 min pre-incubation with vs without NADPH, testosterone substrate, human liver microsomes
Chain of CYP3A4 (P08684 whole entry): as above
Experimental: as §1

[3] = system: Chinese hamster ovary cells (CHO-WBL); assay: In vitro micronucleus assay with Chinese hamster ovary cells
Experimental: In the major micronucleus assay, CHO-WBL cells were exposed to at least 3 concentrations of the test object, while vehicle control group and positive control group were set up, with 2 replicated wells for each dose group. In inactivated test system, the administration lasted for 3 and 24 hours, and in S9 activated test system, the exposure to the test object lasted for 3 hours.
When choosing the highest dose for micronucleus frequency assay, the cytotoxicity of dose group of the test object should not substantially exceed 50% of that of the corresponding vehicle control group.
On the premise that the test is valid, the test results are evaluated according to the following criteria:
If the test object simutaneously meets the following criteria, it can be considered as positive:
A significant increase in micronucleus frequency is observed in one or more concentration groups.
If none of the above three points is met, the test object can be considered as negative.

| Structure (SMILES) | IC50 (ATX enzyme) | Cl_F_pred ([1]; IV 2 mg/kg) | Cl_F_pred ([1]; PO 10 mg/kg) | F [1] | AUC(0-inf) ([1]; IV 2 mg/kg) | AUC(0-t) ([1]; IV 2 mg/kg) | Cmax ([1]; IV 2 mg/kg) | half-life ([1]; IV 2 mg/kg) | AUC(0-inf) ([1]; PO 10 mg/kg) | AUC(0-t) ([1]; PO 10 mg/kg) | Cmax ([1]; PO 10 mg/kg) | Tmax ([1]; PO 10 mg/kg) | half-life ([1]; PO 10 mg/kg) | IC50 shift at 10 min (CYP3A4) | IC50 (hERG potassium channel) | also measured |
| --- | --- | --- | --- | --- | --- | --- | --- | --- | --- | --- | --- | --- | --- | --- | --- | --- |
| CCN(c1nc(-c2ccc(F)cc2)c(C#N)s1)c1c2nc(-c3cnc(N4CCOCC4)nc3)ccc2nn1CC [Example 29, 2-(ethyl(2-ethyl-5-(2-morpholinopyrimidin-5-yl)-2H-pyrazolo[4,3-b]pyridin-3-yl)amino)-4-(4-fluorophenyl)thiazole-5-carbonitrile] | 23 nM | 4.83 mL/min/kg | 18.3 mL/min/kg | 11.2% | 7220 ng·h/mL | 6840 ng·h/mL | 3480 ng/mL | 8.2 h | 9150 ng·h/mL | 7780 ng·h/mL | 847 ng/mL | 3.3 h | 9.2 h |  | > 30000 nM | IC50 [2]: > 100000 nM |
| CCN(c1nc(-c2ccc(F)cc2)c(C#N)s1)c1c2nc(-c3cnc(N4CC[C@@H](O)C4)nc3)ccc2nn1CC [Example 28, (R)-2-(ethyl(2-ethyl-5-(2-(3-hydroxypyrrolidin-1-yl)pyrimidin-5-yl)-2H-pyrazolo[4,3-b]pyridin-3-yl)amino)-4-(4-fluorophenyl)thiazole-5-carbonitrile] | 3.8 nM | 2.33 mL/min/kg | 10 mL/min/kg | 25.9% | 14100 ng·h/mL | 13900 ng·h/mL | 4380 ng/mL | 4.1 h | 18600 ng·h/mL | 18000 ng·h/mL | 1720 ng/mL | 4 h | 4.2 h | 1.28 |  |  |
| CCN(c1nc(-c2ccc(F)cc2)c(C#N)s1)c1c2nc(-c3cnc(N4CCC(O)CC4)nc3)ccc2nn1CC [Example 26, 2-(ethyl(2-ethyl-5-(2-(4-hydroxypiperidin-1-yl)pyrimidin-5-yl)-2H-pyrazolo[4,3-b]pyridin-3-yl)amino)-4-(4-fluorophenyl)thiazole-5-carbonitrile] | 5.5 nM | 4.17 mL/min/kg | 25 mL/min/kg | 16.6% | 8170 ng·h/mL | 7500 ng·h/mL | 3070 ng/mL | 9.3 h | 6720 ng·h/mL | 6230 ng·h/mL | 663 ng/mL | 4 h | 5.8 h | 1.09 | > 30000 nM | % binuclear cells containing micronucleus ([3]; 3-hour administration with metabolic activation, 3 µg/ml): 1.65%; % binuclear cells containing micronucleus ([3]; 3-hour administration with metabolic activation, 6 µg/ml): 1.65%; % binuclear cells containing micronucleus ([3]; 3-hour administration with metabolic activation, 12 µg/ml): 1.75%; % binuclear cells containing micronucleus ([3]; 3-hour administration with metabolic activation, 20 µg/ml): 1.60%; % binuclear cells containing micronucleus ([3]; 3-hour administration without metabolic activation, 3 µg/ml): 1.85%; % binuclear cells containing micronucleus ([3]; 3-hour administration without metabolic activation, 6 µg/ml): 1.80%; % binuclear cells containing micronucleus ([3]; 3-hour administration without metabolic activation, 12 µg/ml): 1.70%; % binuclear cells containing micronucleus ([3]; 3-hour administration without metabolic activation, 25 µg/ml): 1.50%; % binuclear cells containing micronucleus ([3]; 24-hour administration without metabolic activation, 1 µg/ml): 1.90%; % binuclear cells containing micronucleus ([3]; 24-hour administration without metabolic activation, 3 µg/ml): 1.65%; % binuclear cells containing micronucleus ([3]; 24-hour administration without metabolic activation, 6 µg/ml): 1.85%; % binuclear cells containing micronucleus ([3]; 24-hour administration without metabolic activation, 9 µg/ml): 1.80%; potential to induce micronucleus formation in CHO-WBL cells ([3]; overall verdict over all administration series): negative |
| CCN(c1nc(-c2ccc(F)cc2)c(C#N)s1)c1c2nc(-c3cnc(N4CC[C@H](O)C4)nc3)ccc2nn1CC [Example 27, (S)-2-(ethyl(2-ethyl-5-(2-(3-hydroxypyrrolidin-1-yl)pyrimidin-5-yl)-2H-pyrazolo[4,3-b]pyridin-3-yl)amino)-4-(4-fluorophenyl)thiazole-5-carbonitrile] | 4.6 nM |  |  |  |  |  |  |  |  |  |  |  |  | 0.63 | > 30000 nM |  |
| CCN(c1nc(-c2ccc(F)cc2)c(C#N)s1)c1c2nc(-c3cnc(N4CCCCS4(=O)=O)nc3)ccc2nn1CC [Example 21, 2-((5-(2-(1,1-dioxido-1,2-thiazinan-2-yl)pyrimidin-5-yl)-2-ethyl-2H-pyrazolo[4,3-b]pyridin-3-yl)(ethyl)amino)-4-(4-fluorophenyl)thiazole-5-carbonitrile] | 11 nM |  |  |  |  |  |  |  |  |  |  |  |  |  |  |  |

Second part, led by results:

| IC50 (ATX enzyme) | Cl_F_pred ([1]; IV 2 mg/kg) | Cl_F_pred ([1]; PO 10 mg/kg) | F [1] | AUC(0-inf) ([1]; IV 2 mg/kg) | AUC(0-t) ([1]; IV 2 mg/kg) | Cmax ([1]; IV 2 mg/kg) | half-life ([1]; IV 2 mg/kg) | AUC(0-inf) ([1]; PO 10 mg/kg) | AUC(0-t) ([1]; PO 10 mg/kg) | Cmax ([1]; PO 10 mg/kg) | Tmax ([1]; PO 10 mg/kg) | half-life ([1]; PO 10 mg/kg) | IC50 shift at 10 min (CYP3A4) | Structure (SMILES) | IC50 (hERG potassium channel) | also measured |
| --- | --- | --- | --- | --- | --- | --- | --- | --- | --- | --- | --- | --- | --- | --- | --- | --- |
| 11 nM |  |  |  |  |  |  |  |  |  |  |  |  |  | CCN(c1nc(-c2ccc(F)cc2)c(C#N)s1)c1c2nc(-c3cnc(N4CC(O)C4)nc3)ccc2nn1CC [Example 23, 2-(ethyl(2-ethyl-5-(2-(3-hydroxyazetidin-1-yl)pyrimidin-5-yl)-2H-pyrazolo[4,3-b]pyridin-3-yl)amino)-4-(4-fluorophenyl)thiazole-5-carbonitrile] |  | IC50 [2]: > 100000 nM |
| 21 nM |  |  |  |  |  |  |  |  |  |  |  |  | 1.04 | CCc1nc2ccc(-c3cnc(CC(=O)N4CC(O)C4)cn3)cn2c1N(C)c1nc(-c2ccc(F)cc2)c(C#N)s1 [Example 4, 2-((2-ethyl-6-(5-(2-(3-hydroxyazetidin-1-yl)-2-oxoethyl)pyrazin-2-yl)imidazo[1,2-a]pyridin-3-yl)(methyl)amino)-4-(4-fluorophenyl)thiazole-5-carbonitrile] |  |  |
| 4.4 nM |  |  |  |  |  |  |  |  |  |  |  |  |  | CCc1nc2ccc(-c3cnc(C(=O)N4CC(O)C4)cn3)cn2c1N(C)c1nc(-c2ccc(F)cc2)c(C#N)s1 [Example 8, 2-((2-ethyl-6-(5-(3-hydroxyazetidin-1-carbonyl)pyrazin-2-yl)imidazo[1,2-a]pyridin-3-yl)(methyl)amino)-4-(4-fluorophenyl)thiazole-5-carbonitrile] |  |  |
| 29 nM |  |  |  |  |  |  |  |  |  |  |  |  |  | CCc1nc2ccc(-c3ccc(CC(=O)N4CC(O)C4)nc3C)cn2c1N(C)c1nc(-c2ccc(F)cc2)c(C#N)s1 [Example 6, 2-((2-ethyl-6-(6-(2-(3-hydroxyazetidin-1-yl)-2-oxoethyl)-2-methylpyridin-3-yl)imidazo[1,2-a]pyridin-3-yl)(methyl)amino)-4-(4-fluorophenyl)thiazole-5-carbonitrile] |  |  |
| 28 nM |  |  |  |  |  |  |  |  |  |  |  |  |  | CCc1nc2ccc(-c3cnc(C(C)(C)C(=O)N4CC(O)C4)cn3)cn2c1N(C)c1nc(-c2ccc(F)cc2)c(C#N)s1 [Example 9, 2-((2-ethyl-6-(5-(1-(3-hydroxyazetidin-1-yl)-2-methyl-1-oxopropan-2-yl)pyrazin-2-yl)imidazo[1,2-a]pyridin-3-yl)(methyl)amino)-4-(4-fluorophenyl)thiazole-5-carbonitrile] |  |  |
